Where “and” joins values, the source holds several entries; their conditions need not be identical. Equal values may be shown once. Read-outs that look alike come from different tables or passages of the source.
How the values were obtained:
[1] = Clinical bioequivalence study: plasma concentrations (LC-MS-MS) and noncompartmental PK after oral tablet; format: in vivo, human; conditions: for Concentration, individual subjects / concentration at 0 h / concentration at 0.5 h / concentration at 1 h / concentration at 1.5 h / concentration at 2 h / concentration at 3 h / concentration at 4 h / concentration at 6 h / concentration at 8 h / concentration at 10 h / concentration at 12 h / concentration at 24 h / concentration at 48 h / concentration at 72 h / concentration at 96 h: clonazepam 2 mg oral; for concentration at 0 h / concentration at 0.5 h / concentration at 1 h / concentration at 1.5 h / concentration at 2 h / concentration at 3 h / concentration at 4 h / concentration at 6 h / concentration at 8 h / concentration at 10 h / concentration at 12 h / concentration at 24 h / concentration at 48 h / concentration at 72 h / concentration at 96 h: po
[2] = clonazepam, literature referent value, cited from earlier work
[3] = model drug parameter fixed to literature reported value, cited from earlier work
[4] = Referent clinical, clonazepam 2 mg tablet oral, N = 14, mean ±1 SD
[5] = human, plasma, 2 mg, plasma, MEAN column of the sheet with 15 subject columns, read-out: Concentration, MEAN of raw data sheet
[6] = human, plasma, 2 mg, plasma, mean ±1 SD N=14, read-out: Concentration, Referent
[7] = human, plasma, 2 mg, plasma, one value per subject (A1-A6, A8, B1-B8; B5 consumed alcohol), read-out: Concentration, individual subjects
[8] = human, plasma, Referent clinical, clonazepam 2 mg tablet oral, N = 14, mean ±1 SD

O=C1CN=C(c2ccccc2Cl)c2cc([N+](=O)[O-])ccc2N1 [Clonazepam, clonazepam]
CL/F [1, 4]: 3.88 ± 0.68 L/h | V/F [1, 4]: 186.84 ± 25.25 L | Concentration, individual subjects ([1]; plasma, 4 h, one value per subject (A1-A6, A8, B1-B8; B5 consumed alcohol)): 12.61 ng/mL and 14.34 ng/mL and 8.84 ng/mL and 12.65 ng/mL and 11.84 ng/mL and 14.63 ng/mL and 14.50 ng/mL and 12.96 ng/mL and 13.82 ng/mL and 11.06 ng/mL and 13.21 ng/mL and 17.02 ng/mL and 10.16 ng/mL and 10.55 ng/mL | Concentration, individual subjects ([1]; plasma, 6 h, one value per subject (A1-A6, A8, B1-B8; B5 consumed alcohol)): 10.50 ng/mL and 9.64 ng/mL and 15.51 ng/mL and 7.70 ng/mL and 10.12 ng/mL and 10.42 ng/mL and 11.00 ng/mL and 12.04 ng/mL and 12.42 ng/mL and 11.68 ng/mL and 12.48 ng/mL and 8.95 ng/mL and 12.72 ng/mL and 9.18 ng/mL and 8.60 ng/mL | Concentration, individual subjects ([1]; plasma, 8 h, one value per subject (A1-A6, A8, B1-B8; B5 consumed alcohol)): 8.58 ng/mL and 9.87 ng/mL and 7.12 ng/mL and 7.80 ng/mL and 8.38 ng/mL and 11.29 ng/mL and 11.40 ng/mL and 10.91 ng/mL and 10.98 ng/mL and 11.71 ng/mL and 8.16 ng/mL and 11.31 ng/mL and 8.88 ng/mL and 8.34 ng/mL | Concentration, individual subjects ([1]; plasma, 10 h, one value per subject (A1-A6, A8, B1-B8; B5 consumed alcohol)): 8.87 ng/mL and 11.42 ng/mL and 6.58 ng/mL and 7.89 ng/mL and 9.42 ng/mL and 8.97 ng/mL and 9.96 ng/mL and 11.87 ng/mL and 8.66 ng/mL and 9.83 ng/mL and 8.47 ng/mL and 9.69 ng/mL and 7.40 ng/mL and 7.44 ng/mL | Concentration, individual subjects ([1]; plasma, 12 h, one value per subject (A1-A6, A8, B1-B8; B5 consumed alcohol)): 8.09 ng/mL and 8.83 ng/mL and 6.28 ng/mL and 6.29 ng/mL and 8.86 ng/mL and 7.97 ng/mL and 9.45 ng/mL and 11.04 ng/mL and 8.02 ng/mL and 9.77 ng/mL and 7.69 ng/mL and 8.43 ng/mL and 7.52 ng/mL and 6.76 ng/mL | Concentration, individual subjects ([1]; plasma, 24 h, one value per subject (A1-A6, A8, B1-B8; B5 consumed alcohol)): 7.01 ng/mL and 7.87 ng/mL and 5.83 ng/mL and 6.96 ng/mL and 7.45 ng/mL and 7.77 ng/mL and 8.74 ng/mL and 8.99 ng/mL and 7.52 ng/mL and 8.66 ng/mL and 7.57 ng/mL and 8.32 ng/mL and 5.43 ng/mL and 6.77 ng/mL | Concentration, individual subjects ([1]; plasma, 48 h, one value per subject (A1-A6, A8, B1-B8; B5 consumed alcohol)): 4.72 ng/mL and 5.20 ng/mL and 6.30 ng/mL and 3.61 ng/mL and 5.16 ng/mL and 4.16 ng/mL and 6.22 ng/mL and 4.74 ng/mL and 6.11 ng/mL and 5.31 ng/mL and 5.10 ng/mL and 5.12 ng/mL and 5.25 ng/mL and 4.06 ng/mL and 3.12 ng/mL | Cmax ([1]; human, plasma, oral, 2 mg, clonazepam, peak of the mean clinical concentration-time profile over 96 hours): 13.5 ng/mL | concentration at 0 h [1, 5]: 0 ng/mL | concentration at 0 h [1, 6]: 0 ng/mL | concentration at 0 h [1, 7]: 0 ng/mL | concentration at 0.5 h [1, 5]: 6.65 ng/mL | concentration at 0.5 h [1, 6]: 7.13 ± 7.06 ng/mL | concentration at 1 h [1, 5]: 13 ng/mL | concentration at 1 h [1, 6]: 13.4 ± 5.29 ng/mL | concentration at 1.5 h [1, 5]: 13.5 ng/mL | concentration at 1.5 h [1, 6]: 13.9 ± 3.71 ng/mL | concentration at 2 h [1, 5]: 13.1 ng/mL | concentration at 2 h [1, 6]: 13.3 ± 2.82 ng/mL | concentration at 2 h [1, 7]: 13.7 ng/mL | concentration at 3 h [1, 5]: 12.7 ng/mL | concentration at 3 h [1, 6]: 12.9 ± 2.36 ng/mL | concentration at 3 h [1, 7]: 12.5 ng/mL | concentration at 4 h ([1]; human, plasma, 2 mg, plasma, 4 h, MEAN column of the sheet with 15 subject columns, read-out: Concentration, MEAN of raw data sheet): 12.7 ng/mL | concentration at 4 h ([1]; human, plasma, 2 mg, plasma, 4 h, mean ±1 SD N=14, read-out: Concentration, Referent): 13 ± 1.82 ng/mL | concentration at 4 h ([1]; human, plasma, 2 mg, plasma, 4 h, one value per subject (A1-A6, A8, B1-B8; B5 consumed alcohol), read-out: Concentration, individual subjects): 12.7 ng/mL | concentration at 6 h ([1]; human, plasma, 2 mg, plasma, 6 h, MEAN column of the sheet with 15 subject columns, read-out: Concentration, MEAN of raw data sheet): 10.9 ng/mL | concentration at 6 h ([1]; human, plasma, 2 mg, plasma, 6 h, mean ±1 SD N=14, read-out: Concentration, Referent): 11.1 ± 1.87 ng/mL | concentration at 8 h ([1]; human, plasma, 2 mg, plasma, 8 h, MEAN column of the sheet with 15 subject columns, read-out: Concentration, MEAN of raw data sheet): 9.62 ng/mL | concentration at 8 h ([1]; human, plasma, 2 mg, plasma, 8 h, mean ±1 SD N=14, read-out: Concentration, Referent): 9.8 ± 1.43 ng/mL | concentration at 8 h ([1]; human, plasma, 2 mg, plasma, 8 h, one value per subject (A1-A6, A8, B1-B8; B5 consumed alcohol), read-out: Concentration, individual subjects): 9.63 ng/mL | concentration at 10 h ([1]; human, plasma, 2 mg, plasma, 10 h, MEAN column of the sheet with 15 subject columns, read-out: Concentration, MEAN of raw data sheet): 9.05 ng/mL | concentration at 10 h ([1]; human, plasma, 2 mg, plasma, 10 h, mean ±1 SD N=14, read-out: Concentration, Referent): 9.23 ± 1.31 ng/mL | concentration at 10 h ([1]; human, plasma, 2 mg, plasma, 10 h, one value per subject (A1-A6, A8, B1-B8; B5 consumed alcohol), read-out: Concentration, individual subjects): 9.31 ng/mL | concentration at 12 h ([1]; human, plasma, 2 mg, plasma, 12 h, MEAN column of the sheet with 15 subject columns, read-out: Concentration, MEAN of raw data sheet): 8.25 ng/mL | concentration at 12 h ([1]; human, plasma, 2 mg, plasma, 12 h, mean ±1 SD N=14, read-out: Concentration, Referent): 8.39 ± 1.22 ng/mL | concentration at 12 h ([1]; human, plasma, 2 mg, plasma, 12 h, one value per subject (A1-A6, A8, B1-B8; B5 consumed alcohol), read-out: Concentration, individual subjects): 8.78 ng/mL | concentration at 24 h ([1]; human, plasma, 2 mg, plasma, 24 h, MEAN column of the sheet with 15 subject columns, read-out: Concentration, MEAN of raw data sheet): 7.53 ng/mL | concentration at 24 h ([1]; human, plasma, 2 mg, plasma, 24 h, mean ±1 SD N=14, read-out: Concentration, Referent): 7.65 ± 0.93 ng/mL | concentration at 24 h ([1]; human, plasma, 2 mg, plasma, 24 h, one value per subject (A1-A6, A8, B1-B8; B5 consumed alcohol), read-out: Concentration, individual subjects): 8.02 ng/mL | concentration at 48 h ([1]; human, plasma, 2 mg, plasma, 48 h, MEAN column of the sheet with 15 subject columns, read-out: Concentration, MEAN of raw data sheet): 4.95 ng/mL | concentration at 48 h ([1]; human, plasma, 2 mg, plasma, 48 h, mean ±1 SD N=14, read-out: Concentration, Referent): 5.04 ± 0.87 ng/mL | concentration at 72 h [1, 5]: 3.13 ng/mL | concentration at 72 h [1, 6]: 3.22 ± 0.71 ng/mL | concentration at 96 h [1, 5]: 1.89 ng/mL | concentration at 96 h [1, 6]: 1.95 ± 0.58 ng/mL | AUC [1, 8]: 529 ± 80.8 ng·h/mL | Cmax [1, 8]: 16.2 ± 4.28 ng/mL | half-life [1, 8]: 49 ± 7.79 h | k el [1, 8]: 5.83e-06 s⁻¹ | Tmax ([1]; human, plasma, Referent clinical, clonazepam 2 mg tablet oral, N = 14, median, read-out: Tmax): 1.5 h | F (absolute oral bioavailability) [2]: ≥ 90% | Fa × Fg [2]: 93–95% | Fh [2]: 95–97% | Fa × Fg ([2]; listed as clonazepam): 93–95% | Fh ([2]; listed as clonazepam): 95–97% | Pka, In silico acid/base equilibrium constant ([3]; first printed value): 1.86 | Pka, In silico acid/base equilibrium constant ([3]; second printed value): 11.89

Reference: article PMC6118387, “In silico drug absorption tract: An agent-based biomimetic model for human oral drug absorption” (PLoS ONE, 2018)
